Results reported in the NIST ThermoML archive (doi:10.1021/je800150h).

Assay: mn = molality of the nth substance listed, in mol/kg
Settings: 101 kPa, Liquid; for electrical conductivity: CyberScan CON500 conductivity meter

[Cl-].[Li+] [lithium chloride] + O
Settings	electrical conductivity [S/m]	mass density [kg/m3]	viscosity [mPa·s]
293.15 K, m1 = 17.8	–	–	14.89
298.15 K, m1 = 0.5	4.15	1009.4	0.97
298.15 K, m1 = 1	7.29	–	1.052
298.15 K, m1 = 2	12	1041.8	1.165
298.15 K, m1 = 3	15.2	1061.8	1.339
298.15 K, m1 = 4.5	17.7	1089.1	1.586
298.15 K, m1 = 6	18.7	1114.6	1.906
298.15 K, m1 = 8	17.9	1147	2.8
298.15 K, m1 = 11	15.1	1190.9	4.292
298.15 K, m1 = 14	11.7	1230.7	6.899
298.15 K, m1 = 17.8	8.5	1276.4	12.68
303.15 K, m1 = 0.5	4.58	1008.1	0.866
303.15 K, m1 = 1	8	1018.7	0.929
303.15 K, m1 = 2	13.2	–	1.047
303.15 K, m1 = 3	16.7	1060.3	1.239
303.15 K, m1 = 4.5	19.4	1087.7	1.422
303.15 K, m1 = 6	–	1113.1	1.713
303.15 K, m1 = 8	19.7	1145.4	2.486
303.15 K, m1 = 11	16.7	1189.3	3.812
303.15 K, m1 = 14	13.1	1228.9	6.073
303.15 K, m1 = 17.8	9.61	1274.6	11.54
308.15 K, m1 = 0.5	4.99	1006.6	0.782
308.15 K, m1 = 1	8.7	–	0.834
308.15 K, m1 = 2	14.4	1038.7	0.941
308.15 K, m1 = 3	18.2	1058.7	1.083
308.15 K, m1 = 4.5	–	1085.9	1.28
308.15 K, m1 = 6	–	1111.5	1.532
308.15 K, m1 = 8	–	1143.9	2.256
308.15 K, m1 = 11	18.3	1187.8	3.407
308.15 K, m1 = 14	14.5	1227.1	5.332
308.15 K, m1 = 17.8	10.9	1272.8	10.46
313.15 K, m1 = 0.5	5.43	1005.1	0.722
313.15 K, m1 = 1	9.45	1015.8	0.774
313.15 K, m1 = 2	15.6	–	0.866
313.15 K, m1 = 3	19.7	1056.9	0.977
313.15 K, m1 = 4.5	–	1084.4	1.177
313.15 K, m1 = 6	–	1110.1	1.406
313.15 K, m1 = 8	–	1142.3	2.071
313.15 K, m1 = 11	20	1186.1	3.091
313.15 K, m1 = 14	16	1225.3	4.812
313.15 K, m1 = 17.8	12.3	1270.7	9.741
318.15 K, m1 = 0.5	5.85	1003.5	0.668
318.15 K, m1 = 1	10.2	–	0.714
318.15 K, m1 = 2	16.8	1035.2	0.802
318.15 K, m1 = 3	–	1055.5	0.91
318.15 K, m1 = 4.5	–	1083	1.076
318.15 K, m1 = 6	–	1108.4	1.293
318.15 K, m1 = 8	–	1140.7	1.919
318.15 K, m1 = 11	–	1184.3	2.869
318.15 K, m1 = 14	17.5	1223.5	4.412
318.15 K, m1 = 17.8	13.6	1268.9	8.984
323.15 K, m1 = 0.5	6.28	1002.2	0.625
323.15 K, m1 = 1	11	1012.5	0.665
323.15 K, m1 = 2	18.1	1033.8	0.747
323.15 K, m1 = 3	–	–	0.859
323.15 K, m1 = 4.5	–	1081.1	1.003
323.15 K, m1 = 6	–	1106.4	1.194
323.15 K, m1 = 8	–	1138.8	1.742
323.15 K, m1 = 11	–	1182.6	2.69
323.15 K, m1 = 14	19.1	1221.8	4.123
323.15 K, m1 = 17.8	15.1	1266.9	8.265
